One compound from patent publication US9376424B2, “Methods for treating post traumatic stress disorder” (AZEVAN PHARMACEUTICALS, INC., priority 2010, dated 2016) can be followed below.

One experiment has as its target T1, V1b receptor (Homo sapiens, UniProt P47901).
T1 construct: expressed in transfected cells; host or cells: CHO-K1 (ATCC), vector PCI-neo
T1 sequence (P47901 1-424): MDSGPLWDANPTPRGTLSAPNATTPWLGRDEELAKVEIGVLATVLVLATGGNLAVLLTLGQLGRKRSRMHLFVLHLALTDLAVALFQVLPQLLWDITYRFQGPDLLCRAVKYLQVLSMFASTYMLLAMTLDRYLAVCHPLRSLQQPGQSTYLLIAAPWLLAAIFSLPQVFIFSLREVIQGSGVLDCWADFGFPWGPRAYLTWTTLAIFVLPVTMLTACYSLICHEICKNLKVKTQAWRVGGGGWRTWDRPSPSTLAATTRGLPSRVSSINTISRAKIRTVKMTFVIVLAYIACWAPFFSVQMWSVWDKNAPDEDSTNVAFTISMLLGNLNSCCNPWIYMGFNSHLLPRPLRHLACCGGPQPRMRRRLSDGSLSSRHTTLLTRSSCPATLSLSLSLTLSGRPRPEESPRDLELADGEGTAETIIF
Kind of experiment: Human or rat vasopressin V1b cell-based receptor binding assay. The conditions noted are these: selectivity table; read-out: inhibition data (Ki, nM), Receptor V1b. From the text:
Human vasopression V1b receptor-expressing cells. Human vasopressin receptor 1b (hV1b) cDNA (see, Lolait et al., “Extrapituitary expression of the rat V1b vasopressin receptor gene” Proc. Natl. Acad. Sci. USA. 92:6783-7 (1995); de Keyzer et al., “Cloning and characterization of the human V3(V1b) pituitary vasopressin receptor” FEBS Lett. 356:215-20 (1994); Sugimoto et al., “Molecular cloning and functional expression of a cDNA encoding the human V1b vasopressin receptor” J. Biol. Chem. 269:27088-92 (1994)) was inserted into a mammalian cell expression vector PCI-neo (Promega) at EcoR1 site. The recombinant plasmid carrying hV1b cDNA was identified from transformed E. Coli clones and used for the transfection of Chinese hamster ovary cell (CHO-K1, ATCC). Two micrograms of hV1b receptor DNA was introduced into 10^5 CHO cells cultured in 6-well plate, using Fugene-6 mediated transfection technique (Boehringer Mannheim). Twenty-four hrs post transfection, Cells were then cultured under selection of G-418 (0.25 mg/ml) supplemented to the culture medium. Three days later, limited dilution was carried out to obtain single cell clones in 96-well plates. […]
Human or rat vasopression V1b cell-based receptor binding assay. […] Samples were counted in a liquid scintillation counter (Beckman LS3801). IC50 and Ki values were calculated using Prism Curve fitting software. […]

For a further experiment, the target named is V2 (Homo sapiens, UniProt P30518). Briefly: V2 receptor inhibition data (Ki). The conditions noted are these: selectivity table. Format: binding.
Sequence of V2 (P30518 whole entry): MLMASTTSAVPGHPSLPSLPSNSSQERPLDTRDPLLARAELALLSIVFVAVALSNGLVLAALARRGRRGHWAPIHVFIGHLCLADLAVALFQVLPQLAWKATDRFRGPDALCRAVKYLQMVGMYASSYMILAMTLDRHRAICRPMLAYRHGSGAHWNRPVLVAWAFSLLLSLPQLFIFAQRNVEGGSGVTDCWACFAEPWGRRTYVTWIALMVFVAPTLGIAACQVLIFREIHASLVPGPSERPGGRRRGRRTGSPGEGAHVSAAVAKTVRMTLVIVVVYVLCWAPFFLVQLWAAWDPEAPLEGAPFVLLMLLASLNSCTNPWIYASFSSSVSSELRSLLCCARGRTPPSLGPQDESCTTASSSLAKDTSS
The test system of experiment [1] is adult male Long Evans rats. Briefly: Light:Dark Shuttle Box. Type of experiment: in vivo, rat. How it is done:
Anxiolytic Effect in the Light:Dark Shuttle Box. The light:dark shuttle box is a standard and well characterized assay for anxiolytic effects of a test compound. Rats naturally avoid the light side of the box because it is stressful. Increased time on the light side by the treatment group compared to control reflects an anxiolytic effect (Bourin and Hascoet, 2003). Adult male Long Evans rats were administered AVN251 (0.1-2 mg/kg) by oral gavage 90 min prior to testing in a light: dark shuttle box.

As usually defined, the Ki is a dissociation constant, usually derived from enzyme kinetics or from competition with a known ligand.

On to `CN(Cc1cccc(C(F)(F)F)c1)C(=O)[C@@H](CC(=O)N1CCC(N2CCCCC2)CC1)N1C(=O)[C@@H](N2C(=O)OC[C@@H]2c2ccccc2)[C@H]1C=Cc1ccccc1` [Example 225, 2(R)-[[4-(Piperidinyl)piperidinyl]carbonylmethyl]-2-[3(S)-(4(S)-phenyloxazolidin-2-on-3-yl)-4(R)-(2-styryl)azetidin-2-on-1-yl]acetic acid N-methyl-N-(3-trifluoromethylbenzyl)amide], for which the Ki at V1b receptor is more than 1000 nM. The compound also returned a Ki on V2 of more than 1000 nM. Further, the anxiety vs. vehicle entry in experiment [1] (0.1-2 mg/kg oral gavage 90 min prior to testing) was “dose dependent decrease in anxiety”. Besides, in experiment [1] (1 or 2 mg/kg oral gavage), the “light-dark entries (FIG. 2C)” value is recorded as “more light-dark entries”, the “time in the dark (FIG. 2B)” value is listed as “less time in the dark” and the “time in the light (FIG. 2A)” value is listed as “significantly more time in the light”.
